Laboratory results taken from patent publication US6914045B2, “Glycopeptide antibiotics” (Wyeth Holdings Corporation, priority 2001, dated 2005).
Like-named read-outs stand apart in the source and are kept apart here.

Tests used:
Assay in all cases: in vitro antibacterial evaluation, MIC by broth dilution
Type in all cases: cell-based
[1] = tested on: Escherichia coli
In short: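 Broth dilution in Muller-Hinton II medium per NCCLS standard M7-A2, with an inoculum of 5×10^5 CFU/mL and antibiotic tested over 64-0.06 μg/mL. MIC was taken as the lowest concentration inhibiting visible growth.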

[2] = tested on: Streptococcus sp.
In short: (§1)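 Following National Committee for Clinical Laboratory Standards recommendations (M7-A2), susceptibility was measured by dilution in Muller-Hinton II […]. Bacteria were seeded at 5×10^5 CFU/mL against compound concentrations from 64 down to 0.06 μg/mL.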

[3] = tested on: Staphylococcus sp.
In short: as §1

[4] = tested on: Enterococcus sp.
In short: as §1

[5] = strain ATCC 25922, broth dilution, 18 hours at 35° C.
[6] = strain GC 4559, broth dilution, 18 hours at 35° C.
[7] = strain GC 4560, broth dilution, 18 hours at 35° C.
[8] = strain ATCC 6301, broth dilution, 18 hours at 35° C.
[9] = strain GC 1894, broth dilution, 18 hours at 35° C.
[10] = strain GC 4563, broth dilution, 18 hours at 35° C.
[11] = strain GC 4564, broth dilution, 18 hours at 35° C.
[12] = strain GC 4565, broth dilution, 18 hours at 35° C.
[13] = strain ATCC 29213, broth dilution, 18 hours at 35° C.
[14] = strain GC 1131, broth dilution, 18 hours at 35° C.
[15] = strain GC 3051, broth dilution, 18 hours at 35° C.
[16] = strain GC 3053, broth dilution, 18 hours at 35° C.
[17] = strain GC 4541, broth dilution, 18 hours at 35° C.
[18] = strain GC 4542, broth dilution, 18 hours at 35° C.
[19] = strain GC 4543, broth dilution, 18 hours at 35° C.
[20] = strain GC 4544, broth dilution, 18 hours at 35° C.
[21] = strain GC 4545, broth dilution, 18 hours at 35° C.
[22] = strain GC 4546, broth dilution, 18 hours at 35° C.
[23] = strain GC 4547, broth dilution, 18 hours at 35° C.
[24] = strain GC 4548, broth dilution, 18 hours at 35° C.
[25] = strain GC 4549, broth dilution, 18 hours at 35° C.
[26] = strain GC 4551, broth dilution, 18 hours at 35° C.
[27] = strain GC 6257, broth dilution, 18 hours at 35° C.
[28] = strain ATCC 29212, broth dilution, 18 hours at 35° C.
[29] = strain GC 2242, broth dilution, 18 hours at 35° C.
[30] = strain GC 2243, broth dilution, 18 hours at 35° C.
[31] = strain GC 2691, broth dilution, 18 hours at 35° C.
[32] = strain GC 3059, broth dilution, 18 hours at 35° C.
[33] = strain GC 4552, broth dilution, 18 hours at 35° C.
[34] = strain GC 4553, broth dilution, 18 hours at 35° C.
[35] = strain GC 4554, broth dilution, 18 hours at 35° C.
[36] = strain GC 4556, broth dilution, 18 hours at 35° C.
[37] = strain GC 4557, broth dilution, 18 hours at 35° C.
[38] = strain GC 4558, broth dilution, 18 hours at 35° C.
[39] = strain GC 6189, broth dilution, 18 hours at 35° C.

CC(c1ccccc1)C1NC(=O)CNC(=O)C(CO)NC(=O)C(C(O)C2CNC(=N)N2C2OC(CO)C(O)C(O)C2O)NC(=O)C(C(O)C2CNC(=N)N2)NC(=O)C(Cc2ccc3oc(-c4ccoc4)nc3c2)NC1=O (stereo not drawn) [Example 38, Cyclo[3-[2-(3-furyl)-1,3-benzoxazol-5-yl]alanyl-3-(2-iminoimidazolidin-4-yl)seryl-3-(3-hexopyranosyl-2-iminoimidazolidin-4-yl)serylserylglycyl-β-methylphenylalanyl]]
16 µg/mL: MIC Staphylococcus haemolyticus (GC 4546) [3, 22] | MIC Coagulase Negative Staphylococcus (GC 6257) [3, 27]
128 µg/mL: MIC Enterococcus faecalis (ATCC 29212) [4, 28] | MIC Enterococcus faecalis (GC 2242) [4, 29] | MIC Enterococcus faecium (GC 2243) [4, 30] | MIC Enterococcus faecalis (GC 2691) [4, 31] | MIC Enterococcus faecalis (GC 4552) [4, 33] | MIC Enterococcus faecalis (GC 4554) [4, 35] | MIC Enterococcus faecium (GC 4556) [4, 36] | MIC Enterococcus faecalis (GC 6189) [4, 39]
64 µg/mL: MIC Escherichia coli (ATCC 25922) [1, 5] | MIC Escherichia coli (GC 4559) [1, 6] | MIC Streptococcus pneumoniae (GC 4565) [2, 12] | MIC Staphylococcus aureus (ATCC 29213) [3, 13] | MIC Staphylococcus aureus (GC 3051) [3, 15] | MIC Staphylococcus aureus (GC 3053) [3, 16] | MIC Staphylococcus aureus (GC 4541) [3, 17] | MIC Staphylococcus aureus (GC 4542) [3, 18] | MIC Staphylococcus aureus-SMITH (GC 4543) [3, 19] | MIC Staphylococcus aureus (GC 4544) [3, 20] | MIC Coagulase Negative Staphylococcus (GC 4549) [3, 25] | MIC Coagulase Negative Staphylococcus (GC 4551) [3, 26] | MIC Enterococcus faecalis (GC 4553) [4, 34] | MIC Enterococcus avium (GC 4558) [4, 38]
32 µg/mL: MIC Escherichia coli (GC 4560) [1, 7] | MIC Streptococcus pneumoniae (ATCC 6301) [2, 8] | MIC Streptococcus pneumoniae (GC 1894) [2, 9] | MIC Streptococcus pyogenes (GC 4563) [2, 10] | MIC Streptococcus agalactiae (GC 4564) [2, 11] | MIC Staphylococcus aureus (GC 1131) [3, 14] | MIC Staphylococcus aureus (GC 4545) [3, 21] | MIC Coagulase Negative Staphylococcus (GC 4547) [3, 23] | MIC Coagulase Negative Staphylococcus (GC 4548) [3, 24] | MIC Enterococcus faecium (GC 4557) [4, 37]
>128 µg/mL: MIC Enterococcus faecalis (GC 3059) [4, 32]

CC(C)=Cc1nc2cc(CC3NC(=O)C(C(C)c4ccccc4)NC(=O)CNC(=O)C(CO)NC(=O)C(C(O)C4CNC(=N)N4C4OC(CO)C(O)C(O)C4O)NC(=O)C(C(O)C4CNC(=N)N4)NC3=O)ccc2o1 (stereo not drawn) [Example 40, Cyclo[3-[2-(2-methylprop-1-en-1-yl)-1,3-benzoxazol-5-yl]alanyl-3-(2-iminoimidazolidin-4-yl)seryl-3-(3-hexopyranosyl-2-iminoimidazolidin-4-yl)serylserylglycyl-β-methylphenyl-alanyl]]
128 µg/mL: MIC Streptococcus pneumoniae (GC 4565) [2] | MIC Enterococcus faecalis (ATCC 29212) [4] | MIC Enterococcus faecalis (GC 2242) [4] | MIC Enterococcus faecalis (GC 2691) [4] | MIC Enterococcus faecalis (GC 6189) [4] | MIC Enterococcus faecium (GC 4556) [4]
>128 µg/mL: MIC Enterococcus faecalis (GC 3059) [4] | MIC Enterococcus faecalis (GC 4552) [4] | MIC Enterococcus faecalis (GC 4554) [4]
64 µg/mL: MIC Streptococcus agalactiae (GC 4564) [2] | MIC Streptococcus pneumoniae (ATCC 6301) [2] | MIC Staphylococcus aureus (ATCC 29213) [3] | MIC Staphylococcus aureus (GC 1131) [3] | MIC Staphylococcus aureus (GC 3051) [3] | MIC Staphylococcus aureus (GC 3053) [3] | MIC Staphylococcus aureus (GC 4541) [3] | MIC Staphylococcus aureus (GC 4542) [3] | MIC Staphylococcus aureus-SMITH (GC 4543) [3] | MIC Enterococcus avium (GC 4558) [4] | MIC Enterococcus faecalis (GC 4553) [4] | MIC Enterococcus faecium (GC 2243) [4]
32 µg/mL: MIC Escherichia coli (ATCC 25922) [1] | MIC Escherichia coli (GC 4559) [1] | MIC Streptococcus pneumoniae (GC 1894) [2] | MIC Streptococcus pyogenes (GC 4563) [2] | MIC Coagulase Negative Staphylococcus (GC 4548) [3] | MIC Coagulase Negative Staphylococcus (GC 4551) [3] | MIC Staphylococcus aureus (GC 4544) [3] | MIC Staphylococcus aureus (GC 4545) [3]
16 µg/mL: MIC Escherichia coli (GC 4560) [1] | MIC Coagulase Negative Staphylococcus (GC 4547) [3] | MIC Coagulase Negative Staphylococcus (GC 4549) [3] | MIC Coagulase Negative Staphylococcus (GC 6257) [3] | MIC Staphylococcus haemolyticus (GC 4546) [3] | MIC Enterococcus faecium (GC 4557) [4]

CC(c1ccccc1)C1NC(=O)CNC(=O)C(CO)NC(=O)C(C(O)C2CNC(=N)N2C2OC(CO)C(O)C(O)C2O)NC(=O)C(C(O)C2CNC(=N)N2)NC(=O)C(Cc2ccc3oc(-c4ccc(OCc5ccccc5)cc4)nc3c2)NC1=O (stereo not drawn) [Example 31, Cyclo[3-[2-[4-(phenylmethoxy)phenyl]-1,3-benzoxazol-5-yl]alanyl-3-(2-iminoimidazolidin-4-yl)seryl-3-(3-hexopyranosyl-2-iminoimidazolidin-4-yl)serylserylglycyl-β-methyl-phenylalanyl]]
32 µg/mL: MIC Escherichia coli (GC 4560) [1, 7] | MIC Streptococcus pneumoniae (GC 1894) [2, 9] | MIC Streptococcus agalactiae (GC 4564) [2, 11] | MIC Enterococcus faecium (GC 2243) [4, 30]
>128 µg/mL: MIC Escherichia coli (ATCC 25922) [1, 5] | MIC Escherichia coli (GC 4559) [1, 6]
4 µg/mL: MIC Coagulase Negative Staphylococcus (GC 6257) [3, 27] | MIC Enterococcus faecium (GC 4556) [4, 36] | MIC Enterococcus faecium (GC 4557) [4, 37]
16 µg/mL: MIC Streptococcus pneumoniae (ATCC 6301) [2, 8] | MIC Staphylococcus aureus (ATCC 29213) [3, 13] | MIC Staphylococcus aureus (GC 1131) [3, 14] | MIC Staphylococcus aureus (GC 3051) [3, 15] | MIC Staphylococcus aureus (GC 3053) [3, 16] | MIC Staphylococcus aureus (GC 4541) [3, 17] | MIC Staphylococcus aureus-SMITH (GC 4543) [3, 19] | MIC Staphylococcus aureus (GC 4544) [3, 20] | MIC Staphylococcus aureus (GC 4545) [3, 21] | MIC Coagulase Negative Staphylococcus (GC 4549) [3, 25] | MIC Coagulase Negative Staphylococcus (GC 4551) [3, 26] | MIC Enterococcus faecalis (GC 4553) [4, 34]
8 µg/mL: MIC Streptococcus pyogenes (GC 4563) [2, 10] | MIC Staphylococcus aureus (GC 4542) [3, 18] | MIC Staphylococcus haemolyticus (GC 4546) [3, 22] | MIC Coagulase Negative Staphylococcus (GC 4547) [3, 23] | MIC Coagulase Negative Staphylococcus (GC 4548) [3, 24] | MIC Enterococcus avium (GC 4558) [4, 38]
64 µg/mL: MIC Streptococcus pneumoniae (GC 4565) [2, 12] | MIC Enterococcus faecalis (ATCC 29212) [4, 28] | MIC Enterococcus faecalis (GC 2242) [4, 29] | MIC Enterococcus faecalis (GC 2691) [4, 31] | MIC Enterococcus faecalis (GC 6189) [4, 39]
128 µg/mL: MIC Enterococcus faecalis (GC 3059) [4, 32] | MIC Enterococcus faecalis (GC 4552) [4, 33] | MIC Enterococcus faecalis (GC 4554) [4, 35]
